The source of these data is patent US20230227427A1, “IL-17A MODULATORS” (SANOFI, priority 2010, published 2023).

The target in this assay is T1, human recombinant IL-17A (Homo sapiens, UniProt Q16552).
T1 construct: purchased R&D Systems 7955-IL/CF
T1 sequence (Q16552 24-155): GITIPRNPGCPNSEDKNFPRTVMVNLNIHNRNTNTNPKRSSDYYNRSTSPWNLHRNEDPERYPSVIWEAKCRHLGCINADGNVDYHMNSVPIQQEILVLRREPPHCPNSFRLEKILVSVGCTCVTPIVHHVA
In words: IL-17A AlphaLISA assay (block binding of IL-17A to its receptor IL-17RA). The settings on record: read-out: AlphaLISA pIC50 (converted). The method, boiled down:
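Compounds pre-incubated 24 h at RT (30 min where flagged) with human IL-17A (7.5 nM stock) before IL-17RA/Fc (5 nM stock), 90 min. Read by AlphaLISA via anti-Fc acceptor and biotin anti-IL-17A/streptavidin donor beads, 680/615 nm. 4-parameter fit; DMSO and 6 μM reference inhibitor as controls; pIC50.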
Background: Bead proximity is the source of the signal in Alpha formats.

[1] abbreviates: compounds pre-incubated with the IL-17A for 30 min (indicated by * in Table A).
[2] abbreviates: compounds pre-incubated with the IL-17A for 24 h at room temperature.

Each structure is given as a SMILES string. Where two headings read alike, the source gives them in different places.

As to `CCn1nccc1C(=O)N[C@H](C(=O)Nc1ccc(-c2c(C)noc2C)cn1)C1CCCCC1` [Example 118, (S)—N-(1-Cyclohexyl-2-((5-(3,5-dimethylisoxazol-4-yl)pyridin-2-yl)amino)-2-oxoethyl)-1-ethyl-1H-pyrazole-5-carboxamide], the IC50 under setting [1] is 0.158 µM.
Turning to `COc1cnccc1-c1c(F)cc(NC(=O)[C@@H](NC(=O)c2ccnn2C)C(c2ccccc2)c2ccccc2)cc1F` [Example 30, (S)—N-(1-((3,5-difluoro-4-(3-methoxypyridin-4-yl)phenyl)amino)-1-oxo-3,3-diphenylpropan-2-yl)-1-methyl-1H-pyrazole-5-carboxamide], under setting [2], the IC50 was 0.0398 µM.
On to `CCc1nocc1C(=O)N[C@H](C(=O)Nc1ccc(-c2c(C)cnn2C)cn1)C1CCCCC1` [Example 178, (S)—N-(1-cyclohexyl-2-((5-(1,4-dimethyl-1H-pyrazol-5-yl)pyridin-2-yl)amino)-2-oxoethyl)-3-ethylisoxazole-4-carboxamide], for which the IC50 under setting [1] was 0.0794 µM.
The same measure, in the same setting: the value for `Cc1cnn(C)c1-c1ccc(NC(=O)[C@@H](NC(=O)c2conc2C)C2CCCCC2)nc1` [Example 181, (S)—N-(1-cyclohexyl-2-((5-(1,4-dimethyl-1H-pyrazol-5-yl)pyridin-2-yl)amino)-2-oxoethyl)-3-methylisoxazole-4-carboxamide] was 0.158 µM.
For `Cc1cnccc1-c1ccc(NC(=O)[C@@H](NC(=O)c2ccnn2C)C(c2ccccc2)c2ccccc2)cc1F` [Example 15, (S)—N-(1-((3-fluoro-4-(3-methylpyridin-4-yl)phenyl)amino)-1-oxo-3,3-diphenylpropan-2-yl)-1-methyl-1H-pyrazole-5-carboxamide], under setting [2], the IC50 is 0.0501 µM.
Consider `Cc1nonc1C(=O)N[C@H](C(=O)Nc1ccc(-c2c(C)noc2C)cn1)[C@H]1CC[C@H](C)CC1` [Example 120, N—((S)-2-((5-(3,5-Dimethylisoxazol-4-yl)pyridin-2-yl)amino)-1-((1r,4S)-4-methylcyclohexyl)-2-oxoethyl)-4-methyl-1,2,5-oxadiazole-3-carboxamide], for which the IC50 under setting [1] is 0.251 µM.
Same read-out and setting: the same measure for `Cc1cnn(C)c1-c1ccc(NC(=O)C(NC(=O)c2ccnn2C)C2C3(CC3)CCC23CC3)nc1` (stereo not drawn) [Example 220, N-(2-((5-(1,4-dimethyl-1H-pyrazol-5-yl)pyridin-2-yl)amino)-1-(dispiro[2.1.2^5.2^3]nonan-4-yl)-2-oxoethyl)-1-methyl-1H-pyrazole-5-carboxamide]: 0.0316 µM; for `Cn1nccc1C(=O)N[C@H](C(=O)Nc1ccc(-c2c(C#N)cnn2C)cn1)[C@H]1CC[C@H](C)CC1` [Example 193, N—((S)-2-((5-(4-cyano-1-methyl-1H-pyrazol-5-yl)pyridin-2-yl)amino)-1-((1r,4S)-4-methylcyclohexyl)-2-oxoethyl)-1-methyl-1H-pyrazole-5-carboxamide]: 0.251 µM.
On to `CN(C)c1cnccc1-c1ccc(NC(=O)[C@@H](NC(=O)c2ccnn2C)C(c2ccccc2)c2ccccc2)cc1` [Example 8, (S)—N-(1-((4-(3-(dimethylamino)pyridin-4-yl)phenyl)amino)-1-oxo-3,3-diphenylpropan-2-yl)-1-methyl-1H-pyrazole-5-carboxamide], for which the IC50 under setting [2] is 0.0158 µM.
On to `CCc1nocc1C(=O)N[C@H](C(=O)Nc1ccc(-c2c(C)noc2C)cn1)C1CCCCC1` [Example 114, (S)—N-(1-Cyclohexyl-2-((5-(3,5-dimethylisoxazol-4-yl)pyridin-2-yl)amino)-2-oxoethyl)-3-ethylisoxazole-4-carboxamide], for which the IC50 under setting [1] was 0.158 µM.
Same read-out and setting: the value for `Cc1cnn(C)c1-c1cnc(NC(=O)[C@@H](NC(=O)c2ccnn2C)C2CCCCCC2)nc1` [Example 165, (S)—N-(1-cycloheptyl-2-((5-(1,4-dimethyl-1H-pyrazol-5-yl)pyrimidin-2-yl)amino)-2-oxoethyl)-1-methyl-1H-pyrazole-5-carboxamide] was 0.631 µM.
Regarding `Cc1cc(-c2ccc(NC(=O)[C@@H](NC(=O)c3ccnn3C)C(c3ccccc3)c3ccccc3)cc2F)c(C)cn1` [Example 56, (S)—N-(1-((4-(2,5-dimethylpyridin-4-yl)-3-fluorophenyl)amino)-1-oxo-3,3-diphenylpropan-2-yl)-1-methyl-1H-pyrazole-5-carboxamide], the IC50 under setting [2] is 0.1 µM.
Same read-out and setting: the same measure for `Cc1c[n+]([O-])cc(C)c1-c1ccc(NC(=O)[C@@H](NC(=O)c2ccnn2C)C(c2ccccc2)c2ccccc2)cc1` [Example 26, (S)-3,5-dimethyl-4-(4-(2-(1-methyl-1H-pyrazole-5-carboxamido)-3,3-diphenylpropanamido)phenyl)pyridine 1-oxide]: 0.00794 µM.
Regarding `Cc1n[nH]c(C)c1-c1ccc(NC(=O)[C@@H](NC(=O)c2ccnn2C)C2CCCCCC2)cn1` [Example 218, (S)—N-(1-cycloheptyl-2-((6-(3,5-dimethyl-1H-pyrazol-4-yl)pyridin-3-yl)amino)-2-oxoethyl)-1-methyl-1H-pyrazole-5-carboxamide], under setting [1], the IC50 was 0.158 µM.
Regarding `Cn1nccc1C(=O)N[C@H](C(=O)Nc1ccc(C2=CCOCC2)cc1)[C@H]1CC[C@H](C)CC1` [Example 95, N—((S)-2-((4-(3,6-Dihydro-2H-pyran-4-yl)phenyl)amino)-1-((1r,4S)-4-methylcyclohexyl)-2-oxoethyl)-1-methyl-1H-pyrazole-5-carboxamide], the IC50 under setting [2] is 0.1 µM.
As to `CCn1nccc1C(=O)N[C@H](C(=O)Nc1ccc(-c2c(C)c[n+]([O-])cc2C)cn1)[C@H]1CC[C@H](C)CC1` [Example 139, 6-((S)-2-(1-Ethyl-1H-pyrazole-5-carboxamido)-2-((1r,4S)-4-methylcyclohexyl)acetamido)-3′,5′-dimethyl-[3,4′-bipyridine]1′-oxide], under setting [1], the IC50 was 0.126 µM.
On the same count and under the same terms, the same measure for `CCc1nocc1C(=O)N[C@H](C(=O)Nc1ccc(-c2c(C)cnn2C)cn1)[C@H]1CC[C@H](C)CC1` [Example 127, N—((S)-2-((5-(1,4-Dimethyl-1H-pyrazol-5-yl)pyridin-2-yl)amino)-1-((1r,4S)-4-methylcyclohexyl)-2-oxoethyl)-3-ethylisoxazole-4-carboxamide]: 0.0398 µM; for `Cc1noc(C)c1-c1ccc(NC(=O)[C@@H](NC(=O)c2ccnn2C(C)C)C2CCCCCC2)nc1` [Example 123, (S)—N-(1-Cycloheptyl-2-((5-(3,5-dimethylisoxazol-4-yl)pyridin-2-yl)amino)-2-oxoethyl)-1-isopropyl-1H-pyrazole-5-carboxamide]: 0.0398 µM.
Take `CCn1nccc1C(=O)N[C@H](C(=O)Nc1ccc(-c2c[nH]nc2C)c(F)c1)C(c1ccccc1)c1ccccc1` [Example 59, (S)-1-ethyl-N-(1-((3-fluoro-4-(3-methyl-1H-pyrazol-4-yl)phenyl)amino)-1-oxo-3,3-diphenylpropan-2-yl)-1H-pyrazole-5-carboxamide]: the IC50 under setting [2] is 0.1 µM.
As to `COCc1onc(C)c1-c1ccc(NC(=O)[C@@H](NC(=O)c2ccnn2C)C2CCCCCC2)nc1` [Example 150, (S)—N-(1-cycloheptyl-2-((5-(5-(methoxymethyl)-3-methylisoxazol-4-yl)pyridin-2-yl)amino)-2-oxoethyl)-1-methyl-1H-pyrazole-5-carboxamide], the IC50 under setting [1] was 0.398 µM.
Same read-out and setting: the same measure for `Cn1nccc1C(=O)N[C@H](C(=O)Nc1ccc(-c2c(CO)cnn2C)cn1)C1CCCCCC1` [Example 182, (S)—N-(1-cycloheptyl-2-((5-(4-(hydroxymethyl)-1-methyl-1H-pyrazol-5-yl)pyridin-2-yl)amino)-2-oxoethyl)-1-methyl-1H-pyrazole-5-carboxamide]: 0.0316 µM.
